According to patent US20250136576A1, “Heterocyclic Compounds and Uses Thereof” (ACEA Therapeutics, Inc., priority 2021, published 2025):
Read-outs that look alike come from different tables or passages of the source.

Test system: KM12-luc cells
Test: Cell proliferation and growth inhibition assay (CCK-8) in KM12-luc
Type: cell-based
Conditions: read-out: NTRK IC50 in KM12-luc
Protocol: MV-4-11 and H1975 cells were obtained from the American Type Culture Collection and KM12-luc cells were obtained from JCRB Cell Bank. All cell lines were maintained at 37° C. with 5% C02, in media supplemented with 10% fetal bovine serum and penicillin (100 units/mL) and streptomycin (100 μg/mL). MV-4-11 cells were maintained in Iscove's Modified Dubecco's Medium, H1975 cells were cultured with RPMI 1640 media, and KM12-luc cells were maintained in Dulbecco's Modification of Eagle's Medium. CCK-8 reagent was obtained from Yeasen. Cell proliferation was assessed by CCK-8 assay (Yeasen) per the manufacturer's instructions. […] Cell viability was assayed by incubating the cells with CCK-8 reagent for 1-4 hrs. Absorbance was measured at OD450 using the Beckman DTX880. The data was calculated using GraphPad Prism version 6.01. The IC50 values were fitted using a non-linear regression model with a sigmoidal dose response.

[1] = KM12-Luc, 72 h, KM12-luc cells, treated with test compounds for 72 hrs, CCK-8 viability

With CCC(=O)Nc1cccc(Nc2ncc(F)c(Nc3ccc(N4CCN(C(C)=O)CC4)c(F)c3)n2)c1 [Compound 158, N-(3-((4-((4-(4-acetylpiperazin-1-yl)-3-fluorophenyl)amino)-5-fluoropyrimidin-2-yl)amino)phenyl)propionamide] as the molecule, how does the IC50 [1] read?
Its IC50 is over 1000 nM.

Which IC50 [1] does the source give for CCC(=O)Nc1cccc(Nc2ncc(Cl)c(Nc3ccc(N4CCNCC4)cc3OC)n2)c1 [Compound 160, N-(3-((5-chloro-4-((2-methoxy-4-(piperazin-1-yl)phenyl)amino)pyrimidin-2-yl)amino)phenyl)propionamide] here?
Its IC50 is 210 nM.

With CCC(=O)Nc1cccc(Nc2ncc(Cl)c(Nc3ccc(N4CCN(C)CC4)cc3OC)n2)c1 [Compound 161, N-(3-((5-chloro-4-((2-methoxy-4-(4-methylpiperazin-1-yl)phenyl)amino)pyrimidin-2-yl)amino)phenyl)propionamide] as the molecule, how does the IC50 [1] read?
Its IC50 is 146 nM.

For CCC(=O)Nc1cccc(Nc2ncc(Cl)c(Nc3ccc(N4CCN(C(C)=O)CC4)cc3OC)n2)c1 [Compound 162, N-(3-((4-((4-(4-acetylpiperazin-1-yl)-2-methoxyphenyl)amino)-5-chloropyrimidin-2-yl)amino)phenyl)propionamide], which IC50 [1] is on record?
Its IC50 is 129 nM.

Which IC50 [1] does the source give for CCC(=O)Nc1cccc(Nc2ncc(Cl)c(Nc3ccc(C4CCCNC4)cc3OC)n2)c1 (stereo not shown) [Compound 164, N-(3-((5-chloro-4-((2-methoxy-4-(piperidin-3-yl)phenyl)amino)pyrimidin-2-yl)amino)phenyl)propionamide] here?
Its IC50 is 50.5 nM.

CCC(=O)Nc1cccc(Nc2ncc(Cl)c(Nc3ccc(C4CCCN(C(C)=O)C4)cc3OC)n2)c1 (stereo not shown) [Compound 165, N-(3-((4-((4-(1-acetylpiperidin-3-yl)-2-methoxyphenyl)amino)-5-chloropyrimidin-2-yl)amino)phenyl)propionamide] was tested. Which IC50 [1] did it give?
Its IC50 is 171 nM.

With COc1cc(N2CCN(C(C)=O)CC2)ccc1Nc1nc(Nc2cccc(NC(C)=O)c2)ncc1C(F)(F)F [Compound 173, N-(3-((4-((4-(4-acetylpiperazin-1-yl)-2-methoxyphenyl)amino)-5-(trifluoromethyl)pyrimidin-2-yl)amino)phenyl)acetamide] as the molecule, how does the IC50 [1] read?
The IC50 was 85.7 nM.

Which IC50 [1] does the source give for CNc1cccc(Oc2nc(Nc3ccc(N4CCN(C)CC4)c(F)c3)nc3[nH]ccc23)c1 [Compound 177, N-(3-fluoro-4-(4-methylpiperazin-1-yl)phenyl)-4-(3-(methylamino)phenoxy)-7H-pyrrolo[2,3-d]pyrimidin-2-amine] here?
The IC50 was 132 nM.

CN(C)CCN(C)c1ccc(Nc2nc(Oc3cccc(N)c3)c3cc[nH]c3n2)cc1F [Compound 180, N^4-(4-(3-aminophenoxy)-7H-pyrrolo[2,3-d]pyrimidin-2-yl)-N^1-(2-(dimethylamino)ethyl)-2-fluoro-N1-methylbenzene-1,4-diamine] was tested. Which IC50 [1] did it give?
The IC50 was 3060 nM.

For CC(=O)Nc1cccc(Oc2nc(Nc3ccc(N(C)CCN(C)C)c(F)c3)nc3[nH]ccc23)c1 [Compound 181a, N-(3-((2-((4-((2-(dimethylamino)ethyl)(methyl)amino)-3-fluorophenyl)amino)-7H-pyrrolo[2,3-d]pyrimidin-4-yl)oxy)phenyl)acetamide], which IC50 [1] is on record?
Its IC50 is over 10000 nM.

CC(=O)Nc1cccc(Oc2nc(Nc3ccc4c(c3)[N+](C)(C)CCN4C)nc3[nH]ccc23)c1 [Compound 181b, 7-((4-(3-acetamidophenoxy)-7H-pyrrolo[2,3-d]pyrimidin-2-yl)amino)-1,1,4-trimethyl-1,2,3,4-tetrahydroquinoxalin-1-ium] was tested. Which IC50 (KM12-luc cells, treated with test compounds for 72 hrs, CCK-8 viability) did it give?
The IC50 was over 10000 nM.

CN(C)CCN(C)c1ccc(Nc2nc(Oc3cccc(N)c3)c3cc[nH]c3n2)cc1 [Compound 184, N^1-(4-(3-aminophenoxy)-7H-pyrrolo[2,3-d]pyrimidin-2-yl)-N^4-(2-(dimethylamino)ethyl)-N^4-methylbenzene-1,4-diamine] was tested. Which IC50 [1] did it give?
The IC50 was 407 nM.

For CC(=O)Nc1cc(Nc2nc(-c3c[nH]c4ccccc34)c3cc[nH]c3n2)ccc1N(C)CCN(C)C [Compound 189, N-(5-((4-(1H-indol-3-yl)-7H-pyrrolo[2,3-d]pyrimidin-2-yl)amino)-2-((2-(dimethylamino)ethyl)(methyl)amino)phenyl)acetamide], which IC50 [1] is on record?
The IC50 was 28.7 nM.

Which IC50 [1] does the source give for CC(=O)Nc1cc(Nc2nc(-c3cn(C)c4ccccc34)c3cc[nH]c3n2)cc(F)c1N(C)CCN(C)C [Compound 190, N-(2-((2-(dimethylamino)ethyl)(methyl)amino)-3-fluoro-5-((4-(1-methyl-1H-indol-3-yl)-7H-pyrrolo[2,3-d]pyrimidin-2-yl)amino)phenyl)acetamide] here?
The IC50 was 60.4 nM.

Which IC50 [1] does the source give for CNc1cc(Nc2nc(-c3cn(C)c4ccccc34)c3cc[nH]c3n2)ccc1N(C)CCN(C)C [Compound 192, N^1-(2-(dimethylamino)ethyl)-N^1,N^2-dimethyl-N^4-(4-(1-methyl-1H-indol-3-yl)-7H-pyrrolo[2,3-d]pyrimidin-2-yl)benzene-1,2,4-triamine] here?
Its IC50 is 525 nM.

Which IC50 [1] does the source give for CN(C)CCN(C)c1ccc(Nc2nc(-c3cn(C)c4ccccc34)c3cc[nH]c3n2)cc1NCC(F)(F)F [Compound 194, N^1-(2-(dimethylamino)ethyl)-N^1-methyl-N^4-(4-(1-methyl-1H-indol-3-yl)-7H-pyrrolo[2,3-d]pyrimidin-2-yl)-N^2-(2,2,2-trifluoroethyl)benzene-1,2,4-triamine] here?
Its IC50 is 722 nM.

With CCN(CCN(C)C)c1c(F)cc(Nc2nc(-c3cn(C)c4ccccc34)c3cc[nH]c3n2)cc1NC(C)=O [Compound 195a, N-(2-((2-(dimethylamino)ethyl)(ethyl)amino)-3-fluoro-5-((4-(1-methyl-1H-indol-3-yl)-7H-pyrrolo[2,3-d]pyrimidin-2-yl)amino)phenyl)acetamide] as the molecule, how does the IC50 [1] read?
Its IC50 is 153 nM.

CCN(CCN(C)C)c1c(F)cc(Nc2nc(-c3cn(C)c4ccccc34)c3ccn(C)c3n2)cc1NC(C)=O [Compound 195b, N-(2-((2-(dimethylamino)ethyl)(ethyl)amino)-3-fluoro-5-((7-methyl-4-(1-methyl-1H-indol-3-yl)-7H-pyrrolo[2,3-d]pyrimidin-2-yl)amino)phenyl)acetamide] was tested. Which IC50 [1] did it give?
The IC50 was 561 nM.

CCN(CCN(C)C)c1ccc(Nc2nc(-c3cn(C)c4ccccc34)c3cc[nH]c3n2)cc1NC [Compound 197, N^1-(2-(dimethylamino)ethyl)-N^1-ethyl-N^2-methyl-N^4-(4-(1-methyl-1H-indol-3-yl)-7H-pyrrolo[2,3-d]pyrimidin-2-yl)benzene-1,2,4-triamine] was tested. Which IC50 [1] did it give?
The IC50 was 376 nM.

For CN(C)CCN(C)c1ccc(Nc2nc(-c3cn(C)c4ccccc34)c3cc[nH]c3n2)cc1N [Compound 204, N^1-(2-(dimethylamino)ethyl)-N^1-methyl-N^4-(4-(1-methyl-1H-indol-3-yl)-7H-pyrrolo[2,3-d]pyrimidin-2-yl)benzene-1,2,4-triamine], which IC50 [1] is on record?
Its IC50 is 45.8 nM.

How did the IC50 (KM12-Luc, 72 h) turn out when CC(=O)Nc1cc(Nc2nc(-c3cn(C)c4ccccc34)c3cc[nH]c3n2)ccc1N(C)CCN(C)C [Compound 205a, N-(2-((2-(dimethylamino)ethyl)(methyl)amino)-5-((4-(1-methyl-1H-indol-3-yl)-7H-pyrrolo[2,3-d]pyrimidin-2-yl)amino)phenyl)acetamide] was run?
The IC50 was 37 nM.

CCNc1cc(Nc2nc(-c3cn(C)c4ccccc34)c3cc[nH]c3n2)ccc1N(C)CCN(C)C [Compound 205b, N^1-(2-(dimethylamino)ethyl)-N^2-ethyl-N1-methyl-N^4-(4-(1-methyl-1H-indol-3-yl)-7H-pyrrolo[2,3-d]pyrimidin-2-yl)benzene-1,2,4-triamine] was tested. Which IC50 (KM12-Luc, 72 h) did it give?
Its IC50 is 304 nM.
